{"source": "patent US20250320206A1", "about": "“STAT6 DEGRADERS” (Gilead Sciences, Inc., priority 2024, published 2025)", "key": {"[1]": {"biological_target": "T1, STAT6 (Homo sapiens, UniProt P42226)", "T1 construct": "These cells express endogenous STAT6; host or cells: HeLa LgBiT clone 4.14", "T1 sequence (P42226 1-847)": "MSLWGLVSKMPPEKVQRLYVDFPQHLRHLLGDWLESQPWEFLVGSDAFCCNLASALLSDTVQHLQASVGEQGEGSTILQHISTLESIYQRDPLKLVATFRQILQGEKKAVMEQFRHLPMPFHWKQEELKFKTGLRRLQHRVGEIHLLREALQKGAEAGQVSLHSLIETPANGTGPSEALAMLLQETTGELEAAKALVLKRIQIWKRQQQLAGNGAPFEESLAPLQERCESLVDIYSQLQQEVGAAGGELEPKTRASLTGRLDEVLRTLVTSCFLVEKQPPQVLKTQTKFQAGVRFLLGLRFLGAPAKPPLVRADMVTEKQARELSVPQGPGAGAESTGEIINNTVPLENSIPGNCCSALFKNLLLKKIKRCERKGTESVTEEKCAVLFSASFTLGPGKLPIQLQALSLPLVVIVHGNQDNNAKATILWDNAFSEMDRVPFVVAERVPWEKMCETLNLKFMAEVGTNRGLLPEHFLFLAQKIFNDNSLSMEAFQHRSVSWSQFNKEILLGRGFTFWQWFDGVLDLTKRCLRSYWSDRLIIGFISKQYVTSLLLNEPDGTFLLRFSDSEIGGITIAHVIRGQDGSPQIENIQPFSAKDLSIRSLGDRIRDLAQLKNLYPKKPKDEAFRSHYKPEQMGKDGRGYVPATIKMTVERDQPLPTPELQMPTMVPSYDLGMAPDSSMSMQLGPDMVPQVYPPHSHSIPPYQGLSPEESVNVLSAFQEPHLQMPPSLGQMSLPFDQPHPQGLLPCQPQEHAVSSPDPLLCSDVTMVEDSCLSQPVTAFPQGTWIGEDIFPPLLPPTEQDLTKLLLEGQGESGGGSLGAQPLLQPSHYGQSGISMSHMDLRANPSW", "assay": "Stat6 Degrader Assay (HiBiT based, HeLa LgBiT clone 4.14)", "assay_type": "cell-based", "conditions": "HeLa LgBiT clone 4.14 HiBiT-STAT6, 4-24 h incubation; values given for compounds with >80% Emax; geometric mean; read-out: STAT6 degradation DC50", "outline": "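Luminescence from HiBiT-STAT6 complementing stably expressed LgBiT in HeLa clone 4.14 reports remaining STAT6 protein. Cells (5000/well) exposed to compound for 4-24 h at 37° C; read 0.5 h after Nano-Glo addition. 100% degradation window set with 50 μM terfenadine; percent degradation plotted against concentration.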"}, "[2]": {"system": "Eotaxin-3 release in human whole blood stimulated with IL-4", "assay": "Human Whole Blood Eotaxin-3 Assay (IL-4 stimulated eotaxin-3 release)", "assay_type": "cell-based", "conditions": "IL-4 stimulation, 48 h, values given for compounds with >80% Emax, geometric mean", "outline": "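Eotaxin-3 (CCL26) release measured by MSD kit in plasma supernatant after 48 h IL-4 stimulation ([…]) of human whole blood. Compounds added in triplicate 4-fold dilutions 2 h before stimulation; 0.5% DMSO final, 37° C, 5% CO2.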"}}}
{"compound": "CNc1cc(=O)n(-c2ccnc3c2cc([C@H](C)N2CC=C(c4c(F)cc(C(=O)N5CCC(CN6CCN(Cc7ccc8c(c7)n(C)c(=O)n8[C@H]7CCC(=O)NC7=O)CC6)CC5)cc4F)CC2)n3C)cc1F", "note": "(single isomer, unassigned) [Example 3u52]", "values": [{"measurement": "DC50", "setting": "[1]", "value": 4.3, "unit": "nM"}, {"measurement": "EC50", "setting": "[2]", "value": 1.1, "unit": "nM"}]}
{"compound": "CNc1ccn(-c2ccnc3c2cc(CN2CCC(c4c(F)cc(C(=O)N5CCC(CN6CCN(Cc7ccc8c(c7)n(C)c(=O)n8C7CCC(=O)NC7=O)C[C@@H]6C)CC5)cc4F)CC2)n3C)c(=O)c1", "note": "(stereo partly drawn) [Example 3u19, 3-(5-(((S)-4-((1-(3,5-difluoro-4-(1-((1-methyl-4-(4-(methylamino)-2-oxopyridin-1 (2H)-yl)-1H-pyrrolo[2,3-b]pyridin-2-yl)methyl)piperidin-4-yl)benzoyl)piperidin-4-yl)methyl)-3-methyl-piperazin-1-yl)methyl)-3-methyl-2-oxo-2,3-dihydro-1H-benzo[d]imidazol-1-yl)piperidine-2,6-dione]", "values": [{"measurement": "DC50", "setting": "[1]", "value": 0.7, "unit": "nM"}, {"measurement": "EC50", "setting": "[2]", "value": 0.3, "unit": "nM"}]}
{"compound": "CNc1ccn(-c2ccnc3c2cc([C@H](C)N2CC=C(c4c(C)cc(C(=O)N5CCC(CN6CCN(Cc7ccc8c(c7)n(C)c(=O)n8[C@@H]7CCC(=O)NC7=O)CC6)CC5)cc4F)CC2)n3C)c(=O)c1", "note": "(single isomer, unassigned) [Example 3u157]", "values": [{"measurement": "DC50", "setting": "[1]", "value": 0.3, "unit": "nM"}, {"measurement": "EC50", "setting": "[2]", "value": 0.4, "unit": "nM"}]}
{"compound": "CNc1ccn(-c2ccnc3c2cc([C@H](C)N2CC=C(c4c(C)cc(C(=O)N5CCC(CN6CCN(Cc7ccc8c(c7)C(C)(C)C(=O)N8C7CCC(=O)NC7=O)C[C@@H]6C)CC5)cc4F)CC2)n3C)c(=O)c1", "note": "(stereo partly drawn) [Example 3u175, 3-(5-(((S)-4-((1-(3-fluoro-5-methyl-4-(1-((S)-1-(1-methyl-4-(4-(methylamino)-2-oxopyridin-1 (2H)-yl)-1H-pyrrolo[2,3-b]pyridin-2-yl)ethyl)-1,2,3,6-tetrahydropyridin-4-yl)benzoyl)-piperidin-4-yl)methyl)-3-methylpiperazin-1-yl)methyl)-3,3-dimethyl-2-oxoindolin-1-yl)piperidine-2,6-dione]", "values": [{"measurement": "DC50", "setting": "[1]", "value": 1.3, "unit": "nM"}, {"measurement": "EC50", "setting": "[2]", "value": 3.8, "unit": "nM"}]}
{"compound": "CNc1cc(=O)n(-c2ccnc3c2cc(CN2CCC(c4c(F)cc(C(=O)N5CCC(CN6CCN(Cc7ccc8c(c7)n(C)c(=O)n8[C@@H]7CCC(=O)NC7=O)CC6)CC5)cc4F)CC2)n3C)cc1F", "note": "(single isomer, unassigned) [Example 3u28]", "values": [{"measurement": "DC50", "setting": "[1]", "value": 2.9, "unit": "nM"}, {"measurement": "EC50", "setting": "[2]", "value": 24.3, "unit": "nM"}]}
{"compound": "CNc1cc(=O)n(-c2ccnc3c2cc([C@H](C)N2CC=C(c4c(C)cc(C(=O)N5CCC(CN6CCN(Cc7cc8c(cc7F)N([C@@H]7CCC(=O)NC7=O)C(=O)C87CC7)CC6)CC5)cc4F)CC2)n3C)cc1F", "note": "(single isomer, unassigned) [Example 3u153]", "values": [{"measurement": "DC50", "setting": "[1]", "value": 4.1, "unit": "nM"}, {"measurement": "EC50", "setting": "[2]", "value": 8.7, "unit": "nM"}]}
{"compound": "CNc1ccn(-c2ccnc3c2cc([C@H](C)N2CC=C(c4c(C)cc(C(=O)N5CCC(CN6CCN(Cc7ccc8c(c7)C(C)(C)C(=O)N8[C@H]7CCC(=O)NC7=O)C[C@@H]6C)CC5)cc4F)CC2)n3C)c(=O)c1", "note": "(single isomer, unassigned) [Example 3u176]", "values": [{"measurement": "DC50", "setting": "[1]", "value": 2.3, "unit": "nM"}, {"measurement": "EC50", "setting": "[2]", "value": 9.8, "unit": "nM"}]}
{"compound": "Cc1cc(C(=O)N2CCC(CN3CCN(Cc4ccc5c(c4)n(C)c(=O)n5C4CCC(=O)NC4=O)CC3)CC2)cc(F)c1C1=CCN([C@@H](C)c2cc3c(-n4cc(F)c5c(c4=O)CCN5)ccnc3n2C)CC1", "note": "(stereo partly drawn) [Example 3u85, 3-(5-((4-((1-(3-fluoro-4-(1-((S)-1-(4-(7-fluoro-4-oxo-1,2,3,4-tetrahydro-5H-pyrrolo[3,2-c]pyridin-5-yl)-1-methyl-1H-pyrrolo[2,3-b]pyridin-2-yl)ethyl)-1,2,3,6-tetrahydropyridin-4-yl)-5-methylbenzoyl)piperidin-4-yl)methyl)piperazin-1-yl)methyl)-3-methyl-2-oxo-2,3-dihydro-1H-benzo[d]imidazol-1-yl)piperidine-2,6-dione]", "values": [{"measurement": "DC50", "setting": "[1]", "value": 3.1, "unit": "nM"}, {"measurement": "EC50", "setting": "[2]", "value": 5.2, "unit": "nM"}]}
{"compound": "CNc1cc(=O)n(-c2ccnc3c2cc([C@H](C)N2CCC(c4ccc(C(=O)N5CCC(CN6CCN(Cc7ccc8c(c7)C7(CC7)C(=O)N8[C@@H]7CCC(=O)NC7=O)C[C@@H]6C)CC5)cc4)CC2)n3C)cc1F", "note": "(single isomer, unassigned) [Example 3u38]", "values": [{"measurement": "DC50", "setting": "[1]", "value": 1.3, "unit": "nM"}, {"measurement": "EC50", "setting": "[2]", "value": 1.5, "unit": "nM"}]}
{"compound": "C[C@H]1CN(Cc2ccc3c(c2)C2(CCC2)C(=O)N3C2CCC(=O)NC2=O)CCN1CC1CCN(C(=O)c2cc(F)c(C3CCN(Cc4cc5c(-n6ccc7c(c6=O)CCN7)ccnc5n4C)CC3)c(F)c2)CC1", "note": "(stereo partly drawn) [Example 3u101, 3-(5′-(((S)-4-((1-(3,5-difluoro-4-(1-((1-methyl-4-(4-oxo-1,2,3,4-tetrahydro-5H-pyrrolo[3,2-c]pyridin-5-yl)-1H-pyrrolo[2,3-b]pyridin-2-yl)methyl)piperidin-4-yl)benzoyl)piperidin-4-yl)methyl)-3-methylpiperazin-1-yl)methyl)-2′-oxospiro[cyclobutane-1,3′-indolin]-1′-yl)piperidine-2,6-dione]", "values": [{"measurement": "DC50", "setting": "[1]", "value": 2.3, "unit": "nM"}, {"measurement": "EC50", "setting": "[2]", "value": 2.4, "unit": "nM"}]}
{"compound": "CNc1ccn(-c2ccnc3c2cc(CN2CC=C(c4c(F)cc(C(=O)N5CCC(CN6CCN(Cc7ccc8c(c7)C(C)(C)C(=O)N8[C@@H]7CCC(=O)NC7=O)C[C@@H]6C)CC5)cc4F)CC2)n3C)c(=O)c1", "note": "(single isomer, unassigned) [Example 3u47]", "values": [{"measurement": "DC50", "setting": "[1]", "value": 0.8, "unit": "nM"}, {"measurement": "EC50", "setting": "[2]", "value": 8, "unit": "nM"}]}
{"compound": "CNc1cc(=O)n(-c2ccnc3c2cc([C@H](C)N2CCC(c4ccc(C(=O)N5CCC(CN6CCN(Cc7ccc8c(c7)C7(CC7)C(=O)N8C7CCC(=O)NC7=O)C[C@@H]6C)CC5)cc4)CC2)n3C)cc1F", "note": "(stereo partly drawn) [Example 3u36, 3-(5′-(((S)-4-((1-(4-(1-((S)-1-(4-(5-fluoro-4-(methylamino)-2-oxopyridin-1 (2H)-yl)-1-methyl-1H-pyrrolo[2,3-b]pyridin-2-yl)ethyl)piperidin-4-yl)benzoyl)piperidin-4-yl)methyl)-3-methylpiperazin-1-yl)methyl)-2′-oxospiro[cyclopropane-1,3′-indolin]-1′-yl)piperidine-2,6-dione]", "values": [{"measurement": "DC50", "setting": "[1]", "value": 1.4, "unit": "nM"}, {"measurement": "EC50", "setting": "[2]", "value": 3.3, "unit": "nM"}]}
{"compound": "CNc1ccn(-c2ccnc3c2cc([C@H](C)N2CC=C(c4c(C)cc(C(=O)N(C)C5CCC(N6CCN(Cc7ccc8c(c7)n(C)c(=O)n8C7CCC(=O)NC7=O)CC6)CC5)cc4F)CC2)n3C)c(=O)c1", "note": "(stereo partly drawn) [Example 3u238, N-(4-(4-((1-(2,6-dioxopiperidin-3-yl)-3-methyl-2-oxo-2,3-dihydro-1H-benzo[d]-imidazol-5-yl)methyl)piperazin-1-yl)cyclohexyl)-3-fluoro-N,5-dimethyl-4-(1-((S)-1-(1-methyl-4-(4-(methylamino)-2-oxopyridin-1 (2H)-yl)-1H-pyrrolo[2,3-b]pyridin-2-yl)ethyl)-1,2,3,6-tetrahydropyridin-4-yl)benzamide]", "values": [{"measurement": "DC50", "setting": "[1]", "value": 1.4, "unit": "nM"}, {"measurement": "EC50", "setting": "[2]", "value": 3.2, "unit": "nM"}]}
{"compound": "CNc1cc(=O)n(-c2ccnc3c2cc([C@H](C)N2CC=C(c4c(C)cc(C(=O)N5CCC(CN6CCN(Cc7ccc8c(c7)C(C)(C)C(=O)N8[C@@H]7CCC(=O)NC7=O)C[C@@H]6C)CC5)cc4F)CC2)n3C)cc1F", "note": "(single isomer, unassigned) [Example 3u174]", "values": [{"measurement": "DC50", "setting": "[1]", "value": 3.8, "unit": "nM"}, {"measurement": "EC50", "setting": "[2]", "value": 11, "unit": "nM"}]}
